Molecular target: Beta-lactamase P99 (Enterobacter cloacae) (UniProt P05364)
Assay: Inhibition of hydrolysis of nitrocefin after 5 min pre-incubation with P99 beta-lactamases (class C)

Beta-lactamase P99 (Enterobacter cloacae), sequence (P05364 whole entry, looked up): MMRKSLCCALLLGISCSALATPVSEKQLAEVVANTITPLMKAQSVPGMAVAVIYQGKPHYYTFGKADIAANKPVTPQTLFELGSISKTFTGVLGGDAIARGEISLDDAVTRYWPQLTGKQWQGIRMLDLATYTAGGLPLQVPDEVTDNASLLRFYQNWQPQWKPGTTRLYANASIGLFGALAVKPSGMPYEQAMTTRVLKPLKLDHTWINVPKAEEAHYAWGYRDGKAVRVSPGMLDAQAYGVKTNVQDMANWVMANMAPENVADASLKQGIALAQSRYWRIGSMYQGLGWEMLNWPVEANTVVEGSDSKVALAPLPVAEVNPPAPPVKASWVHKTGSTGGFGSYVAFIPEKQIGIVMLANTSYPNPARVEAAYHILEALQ

Compound | IC50 [µM]
CC[C@@H]1C(=O)N2C[C@@H]1CC(OC)=C2C(=O)OCc1ccc([N+](=O)[O-])cc1 [(1S,5R,6S)-6-Ethyl-3-methoxy-7-oxo-1-aza-bicyclo[3.2.1]oct-2-ene-2-carboxylic acid 4-nitro-benzyl ester] | 300
COC1=C[C@@H]2CC(=O)N(C2)C1C(=O)OCc1ccc([N+](=O)[O-])cc1 (stereo partly drawn) [(1S,5S)-3-Methoxy-7-oxo-1-aza-bicyclo[3.2.1]oct-3-ene-2-carboxylic acid 4-nitro-benzyl ester] | 25
COC1=C[C@@H]2CC(=O)N(C2)C1C(=O)O (stereo partly drawn) [(1S,5S)-3-Methoxy-7-oxo-1-aza-bicyclo[3.2.1]oct-3-ene-2-carboxylic acid] | 140
COC1=C(C(=O)OCc2ccc([N+](=O)[O-])cc2)N2C[C@@H](CC2=O)C1 [(1S,5R)-3-Methoxy-7-oxo-1-aza-bicyclo[3.2.1]oct-2-ene-2-carboxylic acid 4-nitro-benzyl ester] | 160
CC[C@@H]1C(=O)N2C[C@@H]1CC(OC)=C2C(=O)O [(1S,5R,6S)-6-Ethyl-3-methoxy-7-oxo-1-aza-bicyclo[3.2.1]oct-2-ene-2-carboxylic acid] | 100

Molecular target: Beta-lactamase P99 (Enterobacter cloacae) (UniProt P05364)
Assay: Time dependent inhibition of hydrolysis of nitrocefin after 5 min pre-incubation with P99 beta-lactamases (class C)

Compound | IC50 [µM]
CC[C@@H]1C(=O)N2C[C@@H]1C=C(OC)C2C(=O)OCc1ccc([N+](=O)[O-])cc1 (stereo partly drawn) [(1S,5R,6S)-6-Ethyl-3-methoxy-7-oxo-1-aza-bicyclo[3.2.1]oct-3-ene-2-carboxylic acid 4-nitro-benzyl ester] | 210

From BindingDB's records for doi:10.1016/s0960-894x(04)00332-4 (Aventis Pharma, 2004)
